Experimental data published in patent US20070149487A1, “Antiviral Compositions and Methods” (priority 2005, published 2007).

What was measured:
[1] = test system: Vero E6 cells
[2] = test system: human SARS-CoV Toronto-2 strain; type: cell-based

## O=C(NN=C1C(=O)Nc2ccccc21)NC1CCS(=O)(=O)C1 (racemic) [CS07]
[1]
  CC50: > 100 µM
[2]
  EC50: > 100 µM
  Average Inhibition (%) at 32 μM: 1%

## CN1CCc2c(sc3c2C(=O)NC(c2ccc(O)c(O)c2)N3)C1 (stereo not shown) [CS01]
[1]
  CC50: > 100 µM
[2]
  EC50: > 100 µM
  Average Inhibition (%) at 32 μM: 0%

## CS(=O)(=O)c1ccc2c(c1)nc(C(F)(F)F)n2C1CCNCC1 [CS02]
[1]
  CC50: > 100 µM
[2]
  EC50: > 100 µM
  Average Inhibition (%) at 32 μM: 0%

## NC(c1cc(C(F)(F)F)cc(C(F)(F)F)c1)c1cc(C(F)(F)F)cc(C(F)(F)F)c1 [CS03]
[1]
  CC50: > 100 µM
[2]
  EC50: > 100 µM
  Average Inhibition (%) at 32 μM: 0%

## CC(=O)Nc1ccc(N2C(=O)CC(N3CC(C)OC(C)C3)C2=O)cc1 (stereo not shown) [CS04]
[1]
  CC50: > 100 µM
[2]
  EC50: > 100 µM
  Average Inhibition (%) at 32 μM: 4%

## CCN1C(=O)c2cccc3c(NC(=O)c4ccc([N+](=O)[O-])s4)ccc1c23 [CS05]
[1]
  CC50: 10 µM
[2]
  EC50: > 100 µM
  Average Inhibition (%) at 32 μM: 0%

## CN1CCC(c2nc(-c3ccc(Cl)cc3)cc(C(F)(F)F)n2)CC1 [CS06]
[1]
  CC50: 95 µM
[2]
  EC50: > 100 µM
  Average Inhibition (%) at 32 μM: 0%

## CC(=O)Nc1ccc2c(c1)[C@H]1C=CC[C@@H]1[C@H](c1ccc([N+](=O)[O-])cc1)N2 [CS08]
[1]
  CC50: > 100 µM
[2]
  EC50: > 100 µM
  Average Inhibition (%) at 32 μM: 17%

## O=C(O)c1ccc(C2Nc3c(Cl)cc(Cl)c(Cl)c3C3C=CCC32)cc1 (stereo not shown) [CS09]
[1]
  CC50: 85 µM
[2]
  EC50: > 100 µM
  Average Inhibition (%) at 32 μM: 13%

## N=C1C(=Cc2ccc3c(c2)OCO3)C(=O)C=C2SC(C(F)(F)F)=NN12 [CS10]
[1]
  CC50: 67 µM
[2]
  EC50: > 100 µM
  Average Inhibition (%) at 32 μM: 14%

## O=C(O)c1ccc(N=Cc2c(O)ccc3oc4c(c23)CCCC4)cc1 [CS11]
[1]
  CC50: 76 µM
[1]; at 23 μM
  toxicity to normal cells in cell viability assays: not toxic
[2]
  EC50: 23 µM
  Average Inhibition (%) at 32 μM: 66%

## Cc1ccc([N+](=O)[O-])cc1N1C(=O)c2ccc(C(=O)O)cc2C1=O [CS12]
[1]
  CC50: > 100 µM
[2]
  EC50: > 100 µM
  Average Inhibition (%) at 32 μM: 13%
